What is called LD50 is the dose expected to kill half of the subjects tested.

Experimental findings from patent US4656192A, “Tropolone derivatives, processes for the preparation thereof and the use thereof as anti-tumor agents” (Mect Corporation, priority 1984, dated 1987) are described below.

Molecules are shown by their SMILES. Values after ≈ are worked out from the molar mass of the structure shown. A value given as a limit tells only on which side of the number the result lay.

The subject of one series is KB-cells. In words: KB-cell growth inhibition tests. The class given is cell-based. Conditions: Homo sapiens, 48 h, MEM-10% calf serum, 5% CO2, 37° C., sample added second day, surviving cells counted fourth day, substantially 50% growth inhibition vs sample-free control, read-out: KB cell growth inhibition ED50. The method, then:
KB-cells were placed in an Eagles minimal essential medium (MEM)-10% calf serum medium and cultered in a 5 % carbon dioxide atmosphere at 37° C. in an incubator. The cells thus treated were used in the tests. On the first day, the KB cells were diluted to a concentration of 2×10^4 /ml 3 ml of the resulting suspension was placed in watch glasses having a diameter of 60 mm. On the second day, 100, 30, 10, 3 and 1 μg/ml of each sample to be tested was added thereto and the culture was continued under the same conditions as above. On the fourth day, the surviving cells were taken out of the watch glass by meand of trypsin and the number of the cells was counted. The concentration of the sample required for obtaining substantially 50 % growth inhibition based on the sample-free control (ED50) was determined. The cancer cell growth inhibition effect of the sample was shown by ED50.

The test system of a further series is P388 cancer cells. In words: Tests of life-prolongation effects on cancered mice (P388, i.p.). Conditions: Mus musculus, P388, ip, i.p. on first and fifth day, P388 in CDF mice, read-out: Life-prolongation effects T/C %. The class given is in vivo. The method, then:
10^6 P388 cancer cells were grafted into groups of CDF mice. Each group consisted of six mice. On the first day and the fifth day, a sample to be tested was administered to the mice intraperitoneally. The life-prolongation effects were shown in terms of the ratio of the number of surviving days of the mice in the treated group to that in the control group (T/C %).

Another series is described as follows: Acute toxicity in mice. Conditions: mouse, in vivo, male mice. The text has this: The compounds of the present invention have only a low acute toxicity. For example, the acute toxicities of typical compounds, i.e., α,α-bis(2-hydroxy-6-isopropyl-tropon-3-yl)toluene (IIIa) and α,α-bis(2-hydroxy-6-isopropyl-tropon-3-yl)-4-methoxytoluene (IIIb) have LD50 as shown in the following table: […]

Consider `CC(C)c1ccc(C(c2ccc(Cl)cc2)c2ccc(C(C)C)cc(=O)c2O)c(O)c(=O)c1` [IIId, α,α-bis(2-hydroxy-6-isopropyl-tropon-3yl)-4-chlorotoluene], for which, in the series on KB-cells, the IC50 was determined as 2 µg/mL (≈ 4.43 µM). Besides, in the series with P388 cancer cells, the response vs control in vivo at 2.5 mg/kg was determined as 124% and the response vs control in vivo at 10 mg/kg came out at 144%.

As for `CC(C)c1ccc(C2OCCc3ccccc32)c(O)c(=O)c1` (stereo not drawn) [IIa, 3-(1-isochromanyl)-6-isopropyltropolone], in the series on KB-cells, the IC50 is less than 0.3 µg/mL. Besides, in the series with P388 cancer cells, the response vs control in vivo at 100 mg/kg was found to be 126%.

With `O=c1ccccc(C2OCCc3ccccc32)c1O` (stereo not drawn) [IIb, 3-(1-isochromanyl)tropolone], in the series on P388 cancer cells, the response vs control in vivo at 100 mg/kg came to 96%.

Take `CCOC(c1ccc(C)cc1)c1ccc(C(C)C)cc(=O)c1O` (stereo not drawn) [Ib, 3-(α-ethoxy-4-methylbenzyl)-6-isopropyltropolone]: in the series on KB-cells, the IC50 came to 6.2 µg/mL (≈ 19.8 µM). Further, in the series on P388 cancer cells, the response vs control in vivo at 400 mg/kg is 125%.

As to `Cc1ccc(C(c2ccc(C(C)C)cc(=O)c2O)c2ccc(C(C)C)cc(=O)c2O)cc1` [IIIc, α,α-bis(2-hydroxy-6-isopropyl-tropon-3-yl)-4-methyltoluene], the IC50 with KB-cells stood at 1.45 µg/mL (≈ 3.37 µM). Besides, in the series on P388 cancer cells, the response vs control in vivo at 2.5 mg/kg worked out at 125% and the response vs control in vivo at 10 mg/kg amounted to 163%.

As to `CCOC(c1ccccc1)c1ccc(C(C)C)cc(=O)c1O` (stereo not drawn) [Ia], the IC50 with KB-cells was less than 0.3 µg/mL. Besides, the response vs control in vivo at 200 mg/kg in the series on P388 cancer cells was 109%.

As to `COc1ccc(C(c2ccc(C(C)C)cc(=O)c2O)c2ccc(C(C)C)cc(=O)c2O)cc1` [IIIb, α,α-bis(2-hydroxy-6-isopropyl-tropon-3-yl)-4-methoxytoluene], the IC50 in the series with KB-cells was less than 0.3 µg/mL. The response vs control in vivo at 0.62 mg/kg with P388 cancer cells (0.62 mg/kg) turned out to be 127%. Further, in the series on P388 cancer cells, the response vs control in vivo at 5 mg/kg came to 173%. For the same compound, the 50% lethal dose (LD50) in the series “Acute toxicity in mice” (ip) is 11.2 mg/kg; in the series “Acute toxicity in mice” (iv), 9.1 mg/kg; in the series “Acute toxicity in mice” (po), more than 5000 mg/kg.

`CC(C)c1ccc(Cc2ccccc2)c(O)c(=O)c1` [If, 3-benzyl-6-isopropyltropolone]: the IC50 with KB-cells turned out to be 0.56 µg/mL (≈ 2.2 µM). The response vs control in vivo at 200 mg/kg in the series on P388 cancer cells stood at 97%.

`CC(C)c1ccc(C(c2ccccc2)c2ccccc2)c(O)c(=O)c1` [Ie, 3-benzhydryl-6-isopropyltropolone]: the IC50 with KB-cells came to 1.39 µg/mL (≈ 4.21 µM). Besides, in the series with P388 cancer cells, the response vs control in vivo at 200 mg/kg was found to be 123% and the response vs control in vivo at 400 mg/kg came out at 132%.

In the case of `CCOC(c1ccc(N(C)C)cc1)c1ccc(C(C)C)cc(=O)c1O` (stereo not drawn) [Id, 3-[α-ethoxy-4-(N,N-dimethylamino)benzyl]-6-isopropyltropolone], the IC50 in the series on KB-cells was found to be 0.59 µg/mL (≈ 1.73 µM). For the same compound, the response vs control in vivo at 100 mg/kg in the series with P388 cancer cells stood at 136%.

With `CCOC(c1ccc(OC)cc1)c1ccc(C(C)C)cc(=O)c1O` (stereo not drawn) [Ic, 3-(α-ethoxy-4-methoxybenzyl)-6-isopropyltropolone], the IC50 in the series on KB-cells is 0.51 µg/mL (≈ 1.55 µM). In the series on P388 cancer cells, the response vs control in vivo at 100 mg/kg stood at 140%.

For `CC(C)c1ccc(C(c2ccccc2)c2ccc(C(C)C)cc(=O)c2O)c(O)c(=O)c1` [IIIa, α,α-bis(2-hydroxy-6-isopropyl-tropon-3-yl)toluene], the IC50 with KB-cells is less than 0.3 µg/mL. For the same compound, the response vs control in vivo at 1.25 mg/kg in the series on P388 cancer cells (1.25 mg/kg) is 132%. In addition, the response vs control in vivo at 5 mg/kg with P388 cancer cells came to 188%. Besides, the LD50 in the series “Acute toxicity in mice” (ip) was 5.5 mg/kg; in the series “Acute toxicity in mice” (iv) it was 5.8 mg/kg; in the series “Acute toxicity in mice” (po), more than 5000 mg/kg.

As to `CC(C)c1ccc(C(c2ccc(N(C)C)cc2)c2ccc(C(C)C)cc(=O)c2O)c(O)c(=O)c1` [IIIe, α,α-bis(2-hydroxy-6-isopropyl-tropon-3-yl)-4-(N,N-dimethylamino)toluene], the IC50 in the series with KB-cells is 0.69 µg/mL (≈ 1.5 µM). The response vs control in vivo at 2.5 mg/kg with P388 cancer cells was found to be 141%.

Take `COc1ccc(C(c2cc(C(C)C)ccc(=O)c2O)c2cc(C(C)C)ccc(=O)c2O)cc1` [IVa, α,α-bis(2-hydroxy-5-isopropyltropon-3-yl)-4-methoxytoluene]: the IC50 in the series with KB-cells is 0.3 µg/mL (≈ 0.672 µM). In the series on P388 cancer cells, the response vs control in vivo at 2.5 mg/kg stood at 137% and the response vs control in vivo at 10 mg/kg stood at 147%.
